Converted amounts (≈) assume the structure as drawn.
assay: Solubility in Glycerol/H2O (60/40); conditions: Glycerol/H2O (60/40)

| Compound | Solubility in Glycerol/H2O (60/40) |
| --- | --- |
| 4,4-ureylene-di-(2,2,6,6-tetramethylpiperidinyloxyl) [bTUrea, reference compound] | ~3 mM |
| (15-{[(7-oxyl-3,11-dioxa-7-azadispiro[5.1.5.3]hexadec-15-yl)carbamoyl][2-(2-methoxyethoxy)ethyl]amino}-[3,11-dioxa-7-azadispiro[5.1.5.3]hexadec-7-yl])oxidanyl [Compound 57] | ~25 mM |
| α-{(7-Oxyl-3,11-dioxa-7-azadispiro[5.1.5.3]hexadec-15-yl)[(7-oxyl-3,11-dioxa-7-azadispiro[5.1.5.3]hexadec-15-yl)carbamoyl]amino}ω-methylpoly(ethane-1,2-diyloxy) [Compound 72] | >20 mM |
| (4-{3-[1-(PEG)-1H-1,2,3-Triazol-4-yl]propyl}[(1-oxyl-2,2,6,6-tetramethylpiperidin-4-yl)carbamoyl]amino}-2,2,6,6-tetramethylpiperidin-1-yl)oxidanyl [Compound 61] | ~20 mM |
| (15-{[(7-oxyl-3,11-dioxa-7-azadispiro[5.1.5.3]hexadec-15-yl)carbamoyl][2-(2,5,8,11-tetraoxatridecan-13-ylamino)}-[3,11-dioxa-7-azadispiro[5.1.5.3]hexadec-7-yl])oxidanyl [Compound 58] | ~25 mM |
| (4-{(2,5,8,11-tetraoxatridecan-13-yl)[(1-oxyl-2,2,6,6-tetramethyl piperidin-4-yl)carbamoyl]amino}-2,2,6,6-tetramethylpiperidin-1-yl)oxidanyl [Compound 52] | ~10 mM |
| (4-{[2-(2-methoxyethoxy)ethyl][(1-oxyl-2,2,6,6-tetramethylpiperidin-4-yl)carbamoyl]amino}-2,2,6,6-tetramethylpiperidin-1-yl)oxidanyl [Compound 51] | ~10 mM |

same assay, conditions: glycerol/water (60/40), aqueous with cosolvent or surfactant or cyclodextrin

| Compound | solubility |
| --- | --- |
| COCCOCCOCCOCCOC1CN(C2CC3(CCOCC3)N([O])C3(CCOCC3)C2)C(=O)N(C2CC3(CCOCC3)N([O])C3(CCOCC3)C2)C1 (stereo not shown) [Compound 70, 1,3-Bis(7-oxyl-3,11-dioxa-7-azadispiro[5.1.5.3]hexadec-15-yl)-5-(2,5,8,11-tetraoxatridecan-13-yloxy)tetrahydropyrimidin-2(1H)-one] | > 10 mM |
| O=C(NC1CC2(CCOCC2)N(O)C2(CCOCC2)C1)N(CCOCCO)C1CC2(CCOCC2)N(O)C2(CCOCC2)C1 (stereo not shown) [Compound 71, (15-{[(7-Oxyl-3,11-dioxa-7-azadispiro[5.1.5.3]hexadec-15-yl)carbamoyl][2-(2-hydroxyethoxy)ethyl]amino}-[3,11-dioxa-7-azadispiro[5.1.5.3]hexadec-7-yl])oxidanyl] | > 20 mM |
| [O]N1C2(CCOCC2)CC(NC(=O)NC2CC3(CCOCC3)N([O])C3(CCOCC3)C2)CC12CCOCC2 (stereo not shown) [Compound 56, (15-{[(7-Oxyl-3,11-dioxa-7-azadispiro[5.1.5.3]hexadec-15-yl)carbamoyl]amino}-[3,11-dioxa-7-azadispiro[5.1.5.3]hexadec-7-yl])oxidanyl] | ~25 mM (≈ 13.4 mg/mL) |

— patent publication US9738657B2, “Highly efficient polarizing agents for dynamic nuclear polarization” (Bruker Biospin S.A.S., priority 2013, dated 2017)
